Here are results for 29 compounds from ChEMBL document CHEMBL1133241, “Phenylacetamides as selective alpha-1A adrenergic receptor antagonists” (Bioorg Med Chem Lett, 2000).

Experiment [1] concerns the target T1, Alpha-1D adrenergic receptor (Homo sapiens, UniProt P25100).
T1 sequence (P25100 whole entry): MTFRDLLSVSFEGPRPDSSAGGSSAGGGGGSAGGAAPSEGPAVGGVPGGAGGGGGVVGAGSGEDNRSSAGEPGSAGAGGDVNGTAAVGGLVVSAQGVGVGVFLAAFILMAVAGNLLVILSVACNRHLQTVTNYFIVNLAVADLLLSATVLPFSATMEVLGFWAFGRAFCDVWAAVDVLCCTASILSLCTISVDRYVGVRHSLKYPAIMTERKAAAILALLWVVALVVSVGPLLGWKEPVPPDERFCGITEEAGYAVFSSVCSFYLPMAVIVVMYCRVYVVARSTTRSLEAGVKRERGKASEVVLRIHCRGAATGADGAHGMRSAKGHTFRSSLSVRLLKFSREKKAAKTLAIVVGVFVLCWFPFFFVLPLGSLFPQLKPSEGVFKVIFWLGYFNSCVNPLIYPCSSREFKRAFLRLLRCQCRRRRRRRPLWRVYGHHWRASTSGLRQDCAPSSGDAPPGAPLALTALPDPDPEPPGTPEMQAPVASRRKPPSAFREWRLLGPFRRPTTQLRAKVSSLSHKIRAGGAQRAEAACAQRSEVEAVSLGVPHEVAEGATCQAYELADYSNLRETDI
The experiment in a line: Inhibition of binding of [125I]HEAT to cloned human alpha-1D adrenergic receptor.

In experiment [2] the target is T2, Alpha-1A adrenergic receptor (Homo sapiens, UniProt P35348).
T2 sequence (P35348 whole entry): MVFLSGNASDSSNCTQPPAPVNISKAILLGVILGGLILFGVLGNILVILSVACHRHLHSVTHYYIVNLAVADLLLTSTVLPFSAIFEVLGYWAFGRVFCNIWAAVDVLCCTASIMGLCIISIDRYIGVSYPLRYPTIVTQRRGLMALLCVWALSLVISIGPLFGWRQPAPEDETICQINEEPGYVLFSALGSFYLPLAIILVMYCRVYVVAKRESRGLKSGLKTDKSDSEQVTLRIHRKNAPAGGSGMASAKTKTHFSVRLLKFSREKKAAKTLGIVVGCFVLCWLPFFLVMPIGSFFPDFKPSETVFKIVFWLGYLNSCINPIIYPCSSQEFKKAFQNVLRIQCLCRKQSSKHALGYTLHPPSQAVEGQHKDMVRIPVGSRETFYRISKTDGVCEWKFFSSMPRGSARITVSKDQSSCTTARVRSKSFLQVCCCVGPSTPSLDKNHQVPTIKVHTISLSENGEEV
The experiment in a line: Inhibition of binding of [125I]HEAT to cloned human alpha-1A adrenergic receptor.

For experiment [3], the target named is T3, Alpha-1B adrenergic receptor (Homo sapiens, UniProt P35368).
T3 sequence (P35368 whole entry): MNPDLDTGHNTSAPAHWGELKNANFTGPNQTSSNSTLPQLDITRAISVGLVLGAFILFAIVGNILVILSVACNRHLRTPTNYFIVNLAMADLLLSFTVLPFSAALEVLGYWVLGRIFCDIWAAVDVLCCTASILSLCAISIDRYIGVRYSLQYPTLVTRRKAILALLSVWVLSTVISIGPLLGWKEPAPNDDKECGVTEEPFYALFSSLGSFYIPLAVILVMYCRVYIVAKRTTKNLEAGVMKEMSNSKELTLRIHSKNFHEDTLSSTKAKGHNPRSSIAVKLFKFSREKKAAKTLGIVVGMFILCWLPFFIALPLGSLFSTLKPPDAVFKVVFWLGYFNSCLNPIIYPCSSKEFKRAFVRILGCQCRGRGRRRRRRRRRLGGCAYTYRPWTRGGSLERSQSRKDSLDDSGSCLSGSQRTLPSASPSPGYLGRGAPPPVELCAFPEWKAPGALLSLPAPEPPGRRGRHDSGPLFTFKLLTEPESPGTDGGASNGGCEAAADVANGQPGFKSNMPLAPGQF
The experiment in a line: Inhibition of binding of [125I]HEAT to cloned human alpha-1B adrenergic receptor.

In general, Ki refers to the dissociation constant of the complex between target and ligand, obtained from inhibition or displacement.

As to `COC(=O)C1(c2ccccc2)CCN(CCCNC(=O)CCc2ccc([N+](=O)[O-])cc2)CC1`, the Ki in experiment [1] amounted to 1300 nM; in experiment [2], 240 nM; in experiment [3], 910 nM.

As to `Cc1ccccc1C1(C#N)CCN(CCCNC(=O)C(c2ccc(F)c(F)c2)C(C)C)CC1` (stereo in doubt; 28), the Ki is 1600 nM in experiment [1], 2 nM in experiment [2] and 900 nM in experiment [3].

Take `Cc1ccc(C(C(=O)NCCCN2CCC(C#N)(c3ccccn3)CC2)c2ccc(C)cc2)cc1`: the inhibitory constant (Ki) in experiment [1] is over 5000 nM; in experiment [2] it was 25 nM; in experiment [3], over 2000 nM.

On to `Cc1ccc(C(C(=O)NCCCN2CCC(C#N)(c3ccccc3Cl)CC2)c2ccc(C)cc2)cc1`, for which the figures for the Ki in experiment [1], in experiment [2] and in experiment [3] were 600 nM, 0.99 nM and 280 nM, respectively.

Regarding `Cc1ccc(C(C(=O)NCCCN2CCC(C#N)(c3ccccc3C(F)(F)F)CC2)c2ccc(C)cc2)cc1`, the inhibitory constant (Ki) in experiment [1] is 3200 nM; in experiment [2] it was 22 nM; in experiment [3], 1900 nM.

Take `COC(=O)C1(c2ccccc2)CCN(CCCNC(=O)Cc2ccc(C)cc2)CC1`: the inhibition constant (Ki) is 3400 nM in experiment [1], 74 nM in experiment [2] and over 3000 nM in experiment [3].

As to `N#CC1(c2ccccc2)CCN(CCCNC(=O)C(c2ccccc2)C2CCCCC2)CC1` (racemic), the inhibition constant (Ki) is 2500 nM in experiment [1], 61 nM in experiment [2] and 1100 nM in experiment [3].

For `COC(=O)C1(c2ccccc2)CCN(CCNC(=O)CCc2ccc([N+](=O)[O-])cc2)CC1`, the inhibition constant (Ki) was 1500 nM in experiment [1], 380 nM in experiment [2] and over 3000 nM in experiment [3].

Consider `COC(=O)C1(c2ccccc2)CCN(CCCNC(=O)Cc2ccc([N+](=O)[O-])cc2)CC1`, for which the Ki in experiment [1] is 6300 nM; in experiment [2] it was 75 nM; in experiment [3], 3300 nM.

As to `Cc1ccc(C(C(=O)NCCCN2CCC(C#N)(c3ccccc3C)CC2)c2ccc(C)cc2)cc1`, the Ki is 1100 nM in experiment [1], 1.3 nM in experiment [2] and 360 nM in experiment [3].

Regarding `Cc1ccccc1C1(C#N)CCN(CCCNC(=O)C(c2ccc(F)c(F)c2)C(C)C)CC1` (single isomer, unassigned; (-)), the Ki in experiment [1] is 2600 nM; in experiment [2], 50 nM; in experiment [3] it was 1200 nM.

With `Cc1ccccc1C1(C#N)CCN(CCCNC(=O)C(c2ccc(F)cc2)C(C)C)CC1` (stereo not given), the inhibition constant Ki in experiment [1] amounted to 2400 nM; in experiment [2], 24 nM; in experiment [3], 960 nM.

On to `N#CC1(c2ccccc2)CCN(CCCNC(=O)C(c2ccccc2)c2ccccc2)CC1`, for which the Ki amounted to 3300 nM in experiment [1], 28 nM in experiment [2] and 840 nM in experiment [3].

Regarding `Cc1ccc(C(C(=O)NCCCN2CCN(c3ccccc3C)CC2)c2ccc(C)cc2)cc1`, the inhibitory constant (Ki) in experiment [1] worked out at 36 nM; in experiment [2] it was 1.1 nM; in experiment [3], 6.6 nM.

As for `Cc1ccc(C(C(=O)NCCCN2CCC(C(N)=O)(c3ccccc3)CC2)c2ccc(C)cc2)cc1`, the values for the Ki in experiment [1], in experiment [2] and in experiment [3] were 3300 nM, 570 nM and 570 nM, respectively.

Consider `Cc1ccc(C(C(=O)NCCCN2CCN(c3ccccc3)CC2)c2ccc(C)cc2)cc1`, for which the Ki in experiment [1] was 128 nM; in experiment [2], 12 nM; in experiment [3] it was 23 nM.

For `Cc1ccccc1C1(C#N)CCN(CCCNC(=O)C(c2ccc(F)c(F)c2)C(C)C)CC1` (single isomer, unassigned; (+)), the Ki worked out at 2100 nM in experiment [1], 2 nM in experiment [2] and 1400 nM in experiment [3].

In the case of `Cc1ccc(C(C(=O)NCCCN2CCC(C#N)(c3ccccc3C)CC2)C(C)C)cc1` (stereo not given), the inhibition constant Ki in experiment [1] came out at 1100 nM; in experiment [2], 7.4 nM; in experiment [3] it was 650 nM.

In the case of `COC(=O)C1(c2ccccc2)CCN(CCCNC(=O)C(c2ccc(C)cc2)c2ccc(C)cc2)CC1`, the inhibitory constant (Ki) in experiment [1] was 960 nM; in experiment [2], 5.1 nM; in experiment [3] it was 450 nM.

Compound `COC(=O)C1(c2ccccc2)CCN(CCCNC(=O)C2=C(C)N=C(C)/C(=C(/O)OC)C2c2ccc([N+](=O)[O-])cc2)CC1` (racemic) displayed an inhibition constant (Ki) in experiment [1] of 1100 nM.

Regarding `COc1ccccc1C1(C#N)CCN(CCCNC(=O)C(c2ccc(C)cc2)c2ccc(C)cc2)CC1`, the results for the Ki in experiment [1], in experiment [2] and in experiment [3] were 710 nM, 7.5 nM and 570 nM, respectively.

`Cc1ccc(C(C(=O)NCCCN2CCC(c3ccccc3)CC2)c2ccc(C)cc2)cc1`: the Ki in experiment [1] was 230 nM; in experiment [2] it was 8.8 nM; in experiment [3], 34 nM.

As to `Cc1ccccc1C1(C#N)CCN(CCCNC(=O)C(c2cccc(F)c2)C(C)C)CC1` (stereo not given), the values for the Ki in experiment [1], in experiment [2] and in experiment [3] were 2700 nM, 3.4 nM and 680 nM, respectively.

In the case of `COC(=O)C1(c2ccccc2)CCN(CCCNC(=O)C(C)c2ccc([N+](=O)[O-])cc2)CC1` (stereo not given), the Ki was 1700 nM in experiment [1], 47 nM in experiment [2] and 1700 nM in experiment [3].

`Cc1ccc(C(C(=O)NCCCN2CCC(c3ccccn3)CC2)c2ccc(C)cc2)cc1`: the values for the Ki in experiment [1], in experiment [2] and in experiment [3] were 3600 nM, 27 nM and 670 nM, respectively.

As to `Cc1ccc(C(C(=O)NCCCN2CCC(C#N)(c3ccccc3)CC2)c2ccc(C)cc2)cc1`, the inhibitory constant (Ki) was 1400 nM in experiment [1], 7.3 nM in experiment [2] and over 2000 nM in experiment [3].

As to `Cc1ccccc1C1(C#N)CCN(CCCNC(=O)C(c2ccc(Cl)cc2)C(C)C)CC1` (stereo not given), the inhibition constant (Ki) in experiment [1] was found to be 1300 nM; in experiment [2], 6.4 nM; in experiment [3], 870 nM.

With `CC(C)C(C(=O)NCCCN1CCC(C#N)(c2ccccc2)CC1)c1ccccc1` (racemic), the Ki in experiment [1] turned out to be 2900 nM; in experiment [2] it was 72 nM; in experiment [3], 1200 nM.

Turning to `N#CC1(c2ccccc2)CCN(CCCNC(=O)C(c2ccccc2)C2CCCC2)CC1` (racemic), the values for the inhibitory constant (Ki) in experiment [1], in experiment [2] and in experiment [3] were 2300 nM, 50 nM and 2000 nM, respectively.
